Several values for one entry are separate records, joined by “and”; a condition that tells them apart may be missing. Equal values may be shown once.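 Protocol summary: plate cells (96-well), add compound at 5 concentrations, incubate 48 h, interpolate endpoints linearly. GI50: concentration for 50% inhibition of growth. TGI: total growth inhibition.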
Experiments:
Assay in all cases: NCI tumour cell line growth inhibition, 48 h
COLO 205 colon = tested on: COLO 205 colon
EKVX NSCLC = tested on: EKVX NSCLC
HOP-62 NSCLC = tested on: HOP-62 NSCLC
HS 578T breast = tested on: HS 578T breast
HT29 colon = tested on: HT29 colon
MDA-MB-231 breast = tested on: MDA-MB-231 breast
OVCAR-4 ovarian = tested on: OVCAR-4 ovarian
SF-268 CNS = tested on: SF-268 CNS
SK-MEL-2 melanoma = tested on: SK-MEL-2 melanoma
ACHN renal = tested on: ACHN renal

Row | Structure (SMILES) | TGI (COLO 205 colon) | TGI (EKVX NSCLC) [µM] | TGI (HOP-62 NSCLC) [µM] | TGI (HS 578T breast) [µM] | TGI (HT29 colon) [µM] | TGI (MDA-MB-231 breast) | TGI (OVCAR-4 ovarian) | TGI (SF-268 CNS) [µM] | TGI (SK-MEL-2 melanoma) | GI50 (ACHN renal) | TGI (ACHN renal) | GI50 (COLO 205 colon) | GI50 (EKVX NSCLC) | GI50 (HOP-62 NSCLC) [µM] | GI50 (HS 578T breast) | GI50 (HT29 colon) | GI50 (MDA-MB-231 breast) | GI50 (OVCAR-4 ovarian) | GI50 (SF-268 CNS) [µM] | GI50 (SK-MEL-2 melanoma)
1 | C#CCn1c2c(c3ccccc3c1=O)C(=O)c1ccccc1-2 | > 100 µM | 58.8 | 24.1 | 34.8 | 65.9 | 39.1 µM | 33.1 µM | 34.1 | > 100 µM |  |  |  |  |  |  |  |  |  |  | 
2 | CCN1C(=O)N[C@H]2[C@@H]3NC(=O)c4ccc(Cl)n4[C@@H]3C[C@]21O | 1.56 µM | 6.89 | 3.71 | 13.2 | 10.4 | 7.25 µM | 7.99 µM | 52.3 | 1.21 µM | 1.5 µM | 12.4 µM | 0.369 µM | 1.27 µM | 0.466 | 0.578 µM | 0.968 µM | 0.822 µM | 0.571 µM | 0.502 | 0.301 µM
3 | COc1ccccc1N1CCN(CC(O)Cn2c(=O)c3c(OC)nc(C)cc3c(=O)n2-c2ccccc2)CC1 (centres undefined) | > 100 µM | > 100 | > 100 | > 100 | > 100 | > 100 µM | > 100 µM | > 100 | > 100 µM | 37.9 µM | > 100 µM | > 100 µM | 66.1 µM | 43.7 | 25.7 µM | > 100 µM | 24.3 µM | > 100 µM | 62.1 | 43.9 µM
4 | COc1cc(-c2cn(-c3ccc(F)cc3)c(=O)[nH]2)cc(OC)c1OC | > 100 µM | > 100 | > 100 | > 100 | > 100 | > 100 µM | > 100 µM | > 100 | > 100 µM | > 100 µM | > 100 µM | > 100 µM | > 100 µM | 45 | 50.9 µM | > 100 µM | > 100 µM | > 100 µM | > 100 | > 100 µM
5 | COc1ccc(/C=N/C2=NNC(C)(c3ccccc3O)N2C(Cc2c[nH]c3ccccc23)C(=O)O)cc1 (centres undefined) | 4.44 µM | 10.8 | 11.9 | 21.7 | 9.51 | 8.89 µM | 15.1 µM | 13.8 | 5.81 µM | 3.02 µM | 14.7 µM | 1.86 µM | 1.96 µM | 2.58 | 2.83 µM | 2.36 µM | 1.89 µM | 2.26 µM | 3.11 | 2.27 µM
6 | COc1ccc2c3c1OC1C4(CCC5C(C2)N(CC2CC2)CCC351)OCCO4 (centres undefined) | > 100 µM | > 100 | > 100 | > 100 | > 100 | > 100 µM | > 100 µM | > 100 | > 100 µM |  | > 100 µM |  |  |  |  |  |  |  |  | 
7 | CN1CCN(c2ccc(NC(=O)c3cncnc3Nc3ccc4c(ccn4Cc4cccc(F)c4)c3)cc2)CC1 | 2.64 µM | 9.37 | 8.84 | 11.8 | 2.9 | 5.03 µM | 8.66 µM | 9.17 | 10.7 µM | 1.73 µM | 5.89 µM | 0.905 µM | 4.78 µM | 3.9 | 3.63 µM | 0.922 µM | 1.34 µM | 3.97 µM | 4.3 | 5.2 µM
8 | CC[C@H](C)C(=O)O[C@H]1C[C@@H](C)C=C2C=C[C@H](C)[C@H](CC[C@@H]3C[C@@H](O)CC(=O)O3)[C@H]21 | 51.3 µM and > 52.4 µM and 14.7 µM | > 100 | > 100 | > 100 | > 100 | 3.5 µM and 1.51 µM | 61.1 µM and > 55.5 µM and > 30 µM |  | 8.32 µM and 9.48 µM and > 30 µM | 3.43 µM and 1.38 µM | 29.8 µM and 6.03 µM and 23.4 µM | 14.6 µM and 15.3 µM | 4.32 µM and 6.61 µM |  | 5.08 µM and 5.36 µM | 24.7 µM and 21.4 µM | 0.495 µM and 0.31 µM | 10.9 µM and 17.6 µM |  | 1.7 µM and 1.12 µM
9 | Cc1ccc(Nn2c(SCC(=O)Nc3nc(-c4ccccc4)cs3)nc(C)c2C)cc1 | 34.4 µM | 5.61 | > 100 | > 100 | 28.2 | > 100 µM | > 100 µM | > 100 | 35.3 µM | 4.06 µM | 62.9 µM | 3.98 µM | 1.39 µM | 18.4 | 34.1 µM | 4.37 µM | 3.34 µM | 2.13 µM | 9.1 | 7.58 µM
10 | CCN(CC)CCC(CNc1c(C)cnc2cc(Cl)ccc12)c1ccc(Cl)c(Cl)c1 (centres undefined) | 3.24 µM | 14.2 | 17.6 | 23.1 | 10.1 | 7.06 µM | 19.2 µM | 23.8 | 7.73 µM | 4.51 µM | 17.5 µM | 1.55 µM | 3.21 µM | 4.69 | 4.26 µM | 1.14 µM | 2.43 µM | 3.81 µM | 8.3 | 2.67 µM
11 | Nc1nc(N)c2cc(S(=O)(=O)c3ccccc3)ccc2n1 | > 100 µM | > 100 | > 100 | > 100 | > 100 | > 100 µM | > 100 µM | > 100 | > 100 µM | 3.27 µM | > 100 µM | 6.99 µM | 7.13 µM | 4.14 | 6.93 µM | 0.634 µM | 8.07 µM | 7.2 µM | 3.13 | 25.3 µM
12 | Nc1n[nH]c2cc(F)c([C@@H]3Nc4c(F)cc5[nH]ncc5c4[C@H]4C5CCC(C5)[C@@H]34)cc12 (some centres undefined) | 1.03 µM | 23.4 | 6.46 | 2.95 | 5.39 | 5.05 µM | 33.3 µM | 4.49 | 9.37 µM | 0.188 µM | 11.1 µM | 0.124 µM | 0.167 µM | 0.195 | 0.117 µM | 0.119 µM | 0.135 µM | 0.566 µM | 0.306 | 0.817 µM
13 | N#Cc1cc2c(=S)[nH]c(=S)[nH]c2nc1SCc1ccccc1 | > 100 µM | > 100 | > 100 | > 100 |  | 87.4 µM | > 100 µM | > 100 | > 100 µM | 27.4 µM | > 100 µM | 46.2 µM | 63.3 µM | 63.2 | 39.6 µM |  | 21.7 µM | 39.2 µM | 30.6 | 66.7 µM

Source: PubChem BioAssay (NCI)
